# pIC50: −log10 of the molar value.
# Biological target: T1, active p38 alpha enzyme (Upstate Biotechnology) (Homo sapiens, UniProt Q16539)
# T1 construct: purchased Upstate Biotechnology
# Assay: p38α biochemical assay (ATP turnover, luminescent detection, Cambrex PKlight)
# Conditions: p38α kinase; Table 1 Biological Activity
# Outline: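 Luminescent PKlight readout of total ATP consumption follows a 2 h, 30C kinase reaction. Enzyme and MapkapK2 substrate run with 1.4 uM ATP (final) in buffer containing Mg2+, Ca2+, chelators, glycerol, reducing agent and BSA; test compounds added by pintool from DMSO.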
# T1 sequence (Q16539 whole entry): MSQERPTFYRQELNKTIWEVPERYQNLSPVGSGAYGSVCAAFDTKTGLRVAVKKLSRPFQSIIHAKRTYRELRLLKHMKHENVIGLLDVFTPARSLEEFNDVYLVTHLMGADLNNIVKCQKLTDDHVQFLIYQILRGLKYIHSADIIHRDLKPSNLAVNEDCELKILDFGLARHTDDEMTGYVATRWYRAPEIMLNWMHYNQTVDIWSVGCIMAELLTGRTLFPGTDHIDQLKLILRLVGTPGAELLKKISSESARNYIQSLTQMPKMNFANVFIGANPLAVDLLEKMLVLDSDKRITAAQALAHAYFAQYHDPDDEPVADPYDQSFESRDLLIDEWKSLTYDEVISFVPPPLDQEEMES
row,Compound,pIC50
1,CC(C)NC(=O)c1csc(-c2oc(CNC3CCc4ccccc43)nc2-c2ccc(F)cc2)n1 (stereo not shown) [Example 1112],< 6.00
2,CC1=CCC(CCNCc2nc(-c3ccc(F)cc3)c(-c3nc(C(=O)NC(C)C)cs3)o2)C=C1 (stereo not shown) [Example 1113],< 6.00
3,Cc1ccc([C@H](C)NCc2nc(-c3ccc(F)cc3)c(-c3nc(C(=O)NC(C)C)cs3)o2)cc1 [Example 1115],< 6.00
4,Cc1ccc([C@@H](C)NCc2nc(-c3ccc(F)cc3)c(-c3nc(C(=O)NC(C)C)cs3)o2)cc1 [Example 1116],< 6.00
5,CC(C)NC(=O)c1csc(-c2oc(CNCC(C)c3ccccc3)nc2-c2ccc(F)cc2)n1 (stereo not shown) [Example 1117],< 6.00
6,CC(C)NC(=O)c1csc(-c2oc(CNCC(C)c3ccccc3)nc2-c2ccc(F)cc2)n1 (stereo not shown) [Example 1118],< 6.00
7,CC(C)NC(=O)c1csc(-c2oc(CNCCCc3ccccc3)nc2-c2ccc(F)cc2)n1 [Example 1119],< 6.00
8,CC(C)NC(=O)c1csc(-c2oc(CNC(C)Cc3ccncc3)nc2-c2ccc(F)cc2)n1 (stereo not shown) [Example 1121],< 6.00
9,CC(C)NC(=O)c1csc(-c2oc(CNCCOc3ccccc3)nc2-c2ccc(F)cc2)n1 [Example 1123],< 6.00
10,CC(C)NC(=O)c1csc(-c2oc(CNCCc3ccccc3F)nc2-c2ccc(F)cc2)n1 [Example 1128],< 6.00
11,CC(C)NC(=O)c1csc(-c2oc(CNCCCN3CCCC3=O)nc2-c2ccc(F)cc2)n1 [Example 1133],< 6.00
12,CC(C)NC(=O)c1csc(-c2oc(CNCCCN3CCOCC3)nc2-c2ccc(F)cc2)n1 [Example 1137],< 6.00
13,CC(C)NC(=O)c1csc(-c2oc(CNCCN(C(C)C)C(C)C)nc2-c2ccc(F)cc2)n1 [Example 1138],< 6.00
14,CC(C)NC(=O)c1csc(-c2oc(CNC3CCCc4ccccc43)nc2-c2ccc(F)cc2)n1 (stereo not shown) [Example 1139],< 6.00
15,CC(C)NC(=O)c1csc(-c2oc(CNC(C)CCc3ccccc3)nc2-c2ccc(F)cc2)n1 (stereo not shown) [Example 1140],< 6.00
16,CC(C)NC(=O)c1csc(-c2oc(CN[C@H](CO)Cc3ccccc3)nc2-c2ccc(F)cc2)n1 [Example 1144],< 6.00
17,CC(C)NC(=O)c1csc(-c2oc(CNC3CC(C)(C)NC(C)(C)C3)nc2-c2ccc(F)cc2)n1 [Example 1152],< 6.00
18,CCN(CC)CCCC(C)NCc1nc(-c2ccc(F)cc2)c(-c2nc(C(=O)NC(C)C)cs2)o1 (stereo not shown) [Example 1153],< 6.00
19,CC(C)NC(=O)c1csc(-c2oc(CN(CCC#N)Cc3ccccc3)nc2-c2ccc(F)cc2)n1 [Example 1155],< 6.00

row,Compound,pIC50
1,CC(C)NC(=O)c1csc(-c2oc(CNCCNC(=O)OC(C)(C)C)nc2-c2ccc(F)cc2)n1 [Example 1156],< 6.00
2,CC(C)NC(=O)c1csc(-c2oc(CNCCc3c[nH]c4ccccc34)nc2-c2ccc(F)cc2)n1 [Example 1157],< 6.00
3,CC(C)NC(=O)c1csc(-c2oc(CNCCCN(C)c3ccccc3)nc2-c2ccc(F)cc2)n1 [Example 1159],< 6.00
4,CC(C)NC(=O)c1csc(-c2oc(CNCC3(O)CCCCC3)nc2-c2ccc(F)cc2)n1 [Example 1160],< 6.00
5,CC(C)NC(=O)c1csc(-c2oc(CNCC(=O)c3ccccc3)nc2-c2ccc(F)cc2)n1 [Example 1163],< 6.00
6,CCOC(=O)N1CCC(NCc2nc(-c3ccc(F)cc3)c(-c3nc(C(=O)NC(C)C)cs3)o2)CC1 [Example 1164],< 6.00
7,CC(C)NC(=O)c1csc(-c2oc(CNCCCNC(=O)OC(C)(C)C)nc2-c2ccc(F)cc2)n1 [Example 1165],< 6.00
8,CC(C)NC(=O)c1csc(-c2oc(CNC3CCN(Cc4ccccc4)C3)nc2-c2ccc(F)cc2)n1 (stereo not shown) [Example 1170],≥ 6.00
9,CC(C)NC(=O)c1csc(-c2oc(CNC3CCN(Cc4ccccc4)CC3)nc2-c2ccc(F)cc2)n1 [Example 1174],< 6.00
10,CC(C)NC(=O)c1csc(-c2oc(CNCc3ccccc3OC(F)(F)F)nc2-c2ccc(F)cc2)n1 [Example 1175],≥ 6.00
11,CC(C)NC(=O)c1csc(-c2oc(CNCCc3ccc(S(N)(=O)=O)cc3)nc2-c2ccc(F)cc2)n1 [Example 1176],≥ 6.00
12,COc1ccc(C(=O)CNCc2nc(-c3ccc(F)cc3)c(-c3nc(C(=O)NC(C)C)cs3)o2)cc1 [Example 1177],< 6.00
13,CC(C)NC(=O)c1csc(-c2oc(CNCCC(c3ccccc3)c3ccccc3)nc2-c2ccc(F)cc2)n1 [Example 1179],< 6.00
14,Cc1ccc(S(=O)(=O)NCCNCc2nc(-c3ccc(F)cc3)c(-c3nc(C(=O)NC(C)C)cs3)o2)cc1 [Example 1180],≥ 6.00
15,CC(C)NC(=O)c1csc(-c2oc(CBr)nc2-c2ccc(F)cc2)n1 [Example 1181],< 6.00
16,CC(C)NC(=O)c1csc(-c2oc(CN(C)C)nc2-c2ccc(F)cc2)n1 [Example 1182],≥ 6.00
17,CC(C)NC(=O)c1csc(-c2oc(CN3CCOCC3)nc2-c2ccc(F)cc2)n1 [Example 1183],≥ 6.00
18,CCN(C)Cc1nc(-c2ccc(F)cc2)c(-c2nc(C(=O)NC(C)C)cs2)o1 [Example 1186],< 6.00

# Continued, values first:
row,pIC50,Compound
1,< 6.00,Cc1ccc(C)c(CNCc2nc(-c3ccc(F)cc3)c(-c3nc(C(=O)NC(C)C)cs3)o2)c1 [Example 1114]
2,< 6.00,Cc1ccc(CNCc2nc(-c3ccc(F)cc3)c(-c3nc(C(=O)NC(C)C)cs3)o2)cc1C [Example 1120]
3,≥ 6.00,CC(C)NC(=O)c1csc(-c2oc(CNCCc3ccc(O)cc3)nc2-c2ccc(F)cc2)n1 [Example 1122]
4,< 6.00,COc1ccccc1CNCc1nc(-c2ccc(F)cc2)c(-c2nc(C(=O)NC(C)C)cs2)o1 [Example 1124]
5,< 6.00,COc1ccc(CNCc2nc(-c3ccc(F)cc3)c(-c3nc(C(=O)NC(C)C)cs3)o2)cc1 [Example 1125]
6,< 6.00,COc1cccc(CNCc2nc(-c3ccc(F)cc3)c(-c3nc(C(=O)NC(C)C)cs3)o2)c1 [Example 1126]
7,< 6.00,CC(C)NC(=O)c1csc(-c2oc(CNCCc3ccc(F)cc3)nc2-c2ccc(F)cc2)n1 [Example 1127]
8,< 6.00,CC(C)NC(=O)c1csc(-c2oc(CNCCc3cccc(F)c3)nc2-c2ccc(F)cc2)n1 [Example 1129]
9,< 6.00,CC(C)NC(=O)c1csc(-c2oc(CNCc3cccc(Cl)c3)nc2-c2ccc(F)cc2)n1 [Example 1130]
10,< 6.00,CC(C)NC(=O)c1csc(-c2oc(CNCc3ccccc3Cl)nc2-c2ccc(F)cc2)n1 [Example 1131]
11,< 6.00,CC(C)NC(=O)c1csc(-c2oc(CNCc3ccc(Cl)cc3)nc2-c2ccc(F)cc2)n1 [Example 1132]
12,< 6.00,CC(C)NC(=O)c1csc(-c2oc(CNCc3ccc(F)cc3F)nc2-c2ccc(F)cc2)n1 [Example 1134]
13,< 6.00,CC(C)NC(=O)c1csc(-c2oc(CNCc3ccc(F)c(F)c3)nc2-c2ccc(F)cc2)n1 [Example 1135]
14,< 6.00,CC(C)NC(=O)c1csc(-c2oc(CNCc3cc(F)cc(F)c3)nc2-c2ccc(F)cc2)n1 [Example 1136]
15,< 6.00,CC(C)NC(=O)c1csc(-c2oc(CNCc3ccc(C(C)C)cc3)nc2-c2ccc(F)cc2)n1 [Example 1141]
16,< 6.00,CC(C)NC(=O)c1csc(-c2oc(CNCc3ccc4c(c3)OCO4)nc2-c2ccc(F)cc2)n1 [Example 1142]
17,< 6.00,COc1cccc(CCNCc2nc(-c3ccc(F)cc3)c(-c3nc(C(=O)NC(C)C)cs3)o2)c1 [Example 1143]
18,< 6.00,COc1ccc(CCNCc2nc(-c3ccc(F)cc3)c(-c3nc(C(=O)NC(C)C)cs3)o2)cc1 [Example 1145]

row,pIC50,Compound
1,< 6.00,COc1ccccc1CCNCc1nc(-c2ccc(F)cc2)c(-c2nc(C(=O)NC(C)C)cs2)o1 [Example 1146]
2,< 6.00,CCOc1ccccc1CNCc1nc(-c2ccc(F)cc2)c(-c2nc(C(=O)NC(C)C)cs2)o1 [Example 1147]
3,< 6.00,COc1ccc(NCc2nc(-c3ccc(F)cc3)c(-c3nc(C(=O)NC(C)C)cs3)o2)cc1OC [Example 1148]
4,< 6.00,CC(C)NC(=O)c1csc(-c2oc(CNCCc3ccccc3Cl)nc2-c2ccc(F)cc2)n1 [Example 1149]
5,< 6.00,CC(C)NC(=O)c1csc(-c2oc(CNCCc3ccc(Cl)cc3)nc2-c2ccc(F)cc2)n1 [Example 1150]
6,< 6.00,CC(C)NC(=O)c1csc(-c2oc(CNCCc3cccc(Cl)c3)nc2-c2ccc(F)cc2)n1 [Example 1151]
7,< 6.00,CC(C)NC(=O)c1csc(-c2oc(CNCc3ccc(F)c(Cl)c3)nc2-c2ccc(F)cc2)n1 [Example 1154]
8,< 6.00,CC(C)NC(=O)c1csc(-c2oc(CNCc3ccc(C(C)(C)C)cc3)nc2-c2ccc(F)cc2)n1 [Example 1158]
9,< 6.00,COc1cc(CNCc2nc(-c3ccc(F)cc3)c(-c3nc(C(=O)NC(C)C)cs3)o2)cc(OC)c1 [Example 1161]
10,< 6.00,COc1ccc(CNCc2nc(-c3ccc(F)cc3)c(-c3nc(C(=O)NC(C)C)cs3)o2)cc1OC [Example 1162]
11,< 6.00,CC(C)NC(=O)c1csc(-c2oc(CNCc3ccc(C(F)(F)F)cc3)nc2-c2ccc(F)cc2)n1 [Example 1166]
12,< 6.00,CC(C)NC(=O)c1csc(-c2oc(CNCc3cccc(C(F)(F)F)c3)nc2-c2ccc(F)cc2)n1 [Example 1167]
13,< 6.00,CC(C)NC(=O)c1csc(-c2oc(CNCc3ccc(Cl)c(Cl)c3)nc2-c2ccc(F)cc2)n1 [Example 1168]
14,< 6.00,CC(C)NC(=O)c1csc(-c2oc(CNCc3ccc(Cl)cc3Cl)nc2-c2ccc(F)cc2)n1 [Example 1169]
15,< 6.00,COc1ccc(OC)c(CCNCc2nc(-c3ccc(F)cc3)c(-c3nc(C(=O)NC(C)C)cs3)o2)c1 [Example 1171]
16,< 6.00,CC(C)NC(=O)c1csc(-c2oc(CNCc3ccc(N(C)C)cc3)nc2-c2ccc(F)cc2)n1 [Example 1172]
17,≥ 6.00,COc1ccc(CNCc2nc(-c3ccc(F)cc3)c(-c3nc(C(=O)NC(C)C)cs3)o2)cc1O [Example 1173]
18,< 6.00,CC(C)NC(=O)c1csc(-c2oc(CNCCc3ccc4c(c3)OCO4)nc2-c2ccc(F)cc2)n1 [Example 1178]

# Source: patent publication US20060252807A1, “Novel ortho-terphenyl inhibitors of p38 kinase and methods of treating inflammatory disorders” (Kalypsys, Inc., priority 2005, published 2006)
